PMC12621043, “Un-LOK-ing a New Approach for Conformational Selective Targeting of STK10 (LOK)” (ACS Medicinal Chemistry Letters, 2025)

Tests used:
Experiment in all cases: DSF Tm panel
Assay type in all cases: binding
Details in all cases: 10 μM compound
MARK4A = molecular target: T1, MARK4A (Homo sapiens, UniProt Q96L34)
T1 construct: purchased in-house DSF kinase panel (SGC-style construct names; the trailing letter is the construct ID)

OSR1A = molecular target: T2, OSR1A (Homo sapiens, UniProt O95747)
T2 construct: purchased in-house DSF kinase panel (SGC-style construct names; the trailing letter is the construct ID)
T2 sequence (O95747 17-291): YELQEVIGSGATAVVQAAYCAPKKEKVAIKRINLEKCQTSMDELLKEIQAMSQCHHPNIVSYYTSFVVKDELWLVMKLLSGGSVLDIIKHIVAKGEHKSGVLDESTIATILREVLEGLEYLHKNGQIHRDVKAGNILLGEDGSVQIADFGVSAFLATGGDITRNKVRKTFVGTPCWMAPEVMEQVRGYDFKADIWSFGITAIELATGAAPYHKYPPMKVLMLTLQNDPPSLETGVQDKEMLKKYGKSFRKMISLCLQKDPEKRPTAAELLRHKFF

DCAMKL1A = molecular target: T3, DCAMKL1A (Homo sapiens, UniProt O15075)
T3 construct: purchased in-house DSF kinase panel (SGC-style construct names; the trailing letter is the construct ID)
T3 sequence (O15075 372-649): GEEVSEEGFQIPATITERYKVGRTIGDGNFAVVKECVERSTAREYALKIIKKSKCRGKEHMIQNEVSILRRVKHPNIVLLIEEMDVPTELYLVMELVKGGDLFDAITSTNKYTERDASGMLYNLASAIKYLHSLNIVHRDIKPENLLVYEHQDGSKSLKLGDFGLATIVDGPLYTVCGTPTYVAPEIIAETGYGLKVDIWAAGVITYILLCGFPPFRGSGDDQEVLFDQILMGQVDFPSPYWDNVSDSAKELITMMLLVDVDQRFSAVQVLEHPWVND

NEK1A = molecular target: T4, NEK1A (Homo sapiens, UniProt Q96PY6)
T4 construct: purchased in-house DSF kinase panel (SGC-style construct names; the trailing letter is the construct ID)
T4 sequence (Q96PY6 1-328): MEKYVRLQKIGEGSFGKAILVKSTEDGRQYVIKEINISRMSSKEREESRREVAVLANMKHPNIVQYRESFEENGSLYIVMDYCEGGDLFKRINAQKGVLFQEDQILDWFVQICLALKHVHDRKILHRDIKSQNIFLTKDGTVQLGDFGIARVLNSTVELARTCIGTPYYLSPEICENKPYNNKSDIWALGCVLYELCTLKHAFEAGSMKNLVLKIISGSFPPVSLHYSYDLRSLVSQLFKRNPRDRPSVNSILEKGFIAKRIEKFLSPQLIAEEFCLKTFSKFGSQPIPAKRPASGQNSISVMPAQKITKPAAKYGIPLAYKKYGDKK

MAPK10A = molecular target: T5, MAPK10A (Homo sapiens, UniProt P53779)
T5 construct: purchased in-house DSF kinase panel (SGC-style construct names; the trailing letter is the construct ID)
T5 sequence (P53779 39-402): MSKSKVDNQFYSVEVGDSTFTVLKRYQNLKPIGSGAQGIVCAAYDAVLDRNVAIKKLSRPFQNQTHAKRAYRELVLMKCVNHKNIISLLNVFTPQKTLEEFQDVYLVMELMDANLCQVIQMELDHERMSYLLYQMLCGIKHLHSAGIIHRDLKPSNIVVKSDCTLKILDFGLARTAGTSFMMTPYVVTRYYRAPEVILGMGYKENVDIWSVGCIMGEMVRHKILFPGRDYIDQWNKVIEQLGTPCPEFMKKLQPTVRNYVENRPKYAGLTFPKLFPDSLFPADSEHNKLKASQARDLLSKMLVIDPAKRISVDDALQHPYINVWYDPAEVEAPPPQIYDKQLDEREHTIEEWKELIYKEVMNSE

MARK3A = molecular target: T6, MARK3A (Homo sapiens, UniProt P27448)
T6 construct: purchased in-house DSF kinase panel (SGC-style construct names; the trailing letter is the construct ID)
T6 sequence (P27448 56-307): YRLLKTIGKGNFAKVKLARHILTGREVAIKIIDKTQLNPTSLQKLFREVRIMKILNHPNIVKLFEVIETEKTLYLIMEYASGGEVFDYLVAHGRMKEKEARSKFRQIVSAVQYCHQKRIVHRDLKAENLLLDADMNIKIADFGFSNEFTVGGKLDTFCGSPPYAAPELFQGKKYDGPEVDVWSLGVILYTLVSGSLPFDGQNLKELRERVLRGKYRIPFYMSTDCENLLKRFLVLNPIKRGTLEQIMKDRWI

GPRK5A = molecular target: T7, GPRK5A (Homo sapiens, UniProt P34947)
T7 construct: purchased in-house DSF kinase panel (SGC-style construct names; the trailing letter is the construct ID)
T7 sequence (P34947 186-514): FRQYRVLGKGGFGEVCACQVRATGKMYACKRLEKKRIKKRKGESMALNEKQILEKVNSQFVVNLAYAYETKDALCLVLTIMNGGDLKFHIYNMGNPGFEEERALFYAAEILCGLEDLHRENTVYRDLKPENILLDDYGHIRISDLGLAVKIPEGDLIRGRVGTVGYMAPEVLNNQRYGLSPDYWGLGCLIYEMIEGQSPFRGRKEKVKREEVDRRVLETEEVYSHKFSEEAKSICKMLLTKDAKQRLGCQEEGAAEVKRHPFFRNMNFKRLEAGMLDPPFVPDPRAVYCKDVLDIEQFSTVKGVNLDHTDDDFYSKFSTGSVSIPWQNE

MAP3K5A = molecular target: T8, MAP3K5A (Homo sapiens, UniProt Q99683)
T8 construct: purchased in-house DSF kinase panel (SGC-style construct names; the trailing letter is the construct ID)
T8 sequence (Q99683 659-951): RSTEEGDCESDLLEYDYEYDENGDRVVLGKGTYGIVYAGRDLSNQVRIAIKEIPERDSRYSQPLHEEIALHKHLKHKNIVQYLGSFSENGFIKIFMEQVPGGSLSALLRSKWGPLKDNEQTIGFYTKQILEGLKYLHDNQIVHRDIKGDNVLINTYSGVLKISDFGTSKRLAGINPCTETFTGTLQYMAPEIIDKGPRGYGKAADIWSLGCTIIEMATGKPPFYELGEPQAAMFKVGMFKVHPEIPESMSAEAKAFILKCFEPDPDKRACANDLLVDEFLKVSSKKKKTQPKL

CAMK2DA = molecular target: T9, CAMK2DA (Homo sapiens, UniProt Q13557)
T9 construct: purchased in-house DSF kinase panel (SGC-style construct names; the trailing letter is the construct ID)
T9 sequence (Q13557 11-309): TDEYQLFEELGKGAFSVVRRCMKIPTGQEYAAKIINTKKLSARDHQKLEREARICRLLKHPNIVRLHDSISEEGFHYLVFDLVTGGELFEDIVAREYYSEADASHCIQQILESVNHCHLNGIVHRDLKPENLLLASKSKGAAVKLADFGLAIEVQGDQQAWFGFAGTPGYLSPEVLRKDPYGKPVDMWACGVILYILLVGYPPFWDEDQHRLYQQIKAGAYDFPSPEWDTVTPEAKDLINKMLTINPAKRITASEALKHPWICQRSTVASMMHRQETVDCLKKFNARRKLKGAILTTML

DMPK1A = molecular target: T10, DMPK1A (Homo sapiens, UniProt Q09013)
T10 construct: purchased in-house DSF kinase panel (SGC-style construct names; the trailing letter is the construct ID)
T10 sequence (Q09013 1-629): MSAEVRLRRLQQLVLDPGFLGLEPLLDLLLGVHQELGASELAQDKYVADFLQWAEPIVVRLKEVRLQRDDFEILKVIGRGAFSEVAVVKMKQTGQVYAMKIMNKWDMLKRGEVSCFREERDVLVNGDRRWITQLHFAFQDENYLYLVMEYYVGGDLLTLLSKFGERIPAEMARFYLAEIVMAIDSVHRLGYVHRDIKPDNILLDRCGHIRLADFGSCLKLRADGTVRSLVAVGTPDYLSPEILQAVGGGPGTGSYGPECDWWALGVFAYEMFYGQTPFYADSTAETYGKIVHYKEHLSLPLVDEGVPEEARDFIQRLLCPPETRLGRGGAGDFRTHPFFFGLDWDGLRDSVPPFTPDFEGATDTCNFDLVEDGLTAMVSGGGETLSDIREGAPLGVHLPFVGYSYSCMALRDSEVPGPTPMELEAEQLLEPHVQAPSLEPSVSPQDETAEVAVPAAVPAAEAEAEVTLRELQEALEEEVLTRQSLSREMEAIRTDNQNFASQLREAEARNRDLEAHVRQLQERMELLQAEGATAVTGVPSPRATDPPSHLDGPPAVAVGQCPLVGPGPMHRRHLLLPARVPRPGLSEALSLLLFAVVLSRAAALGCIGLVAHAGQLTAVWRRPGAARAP

EPHA2 (EPHA2A) = molecular target: T11, EPHA2 (EPHA2A) (Homo sapiens, UniProt P29317)
T11 construct: purchased in-house DSF kinase panel (SGC-style construct names; the trailing letter is the construct ID)
T11 sequence (P29317 596-900): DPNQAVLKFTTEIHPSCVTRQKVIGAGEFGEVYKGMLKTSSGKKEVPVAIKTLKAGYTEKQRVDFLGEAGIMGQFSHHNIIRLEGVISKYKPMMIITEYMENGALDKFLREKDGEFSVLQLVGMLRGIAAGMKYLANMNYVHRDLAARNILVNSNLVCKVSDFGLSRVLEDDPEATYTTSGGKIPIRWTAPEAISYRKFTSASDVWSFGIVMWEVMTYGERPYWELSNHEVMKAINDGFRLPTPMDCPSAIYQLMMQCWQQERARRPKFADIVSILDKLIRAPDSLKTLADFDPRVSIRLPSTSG

STK10 = molecular target: T12, STK10 (Homo sapiens, UniProt O94804)
T12 construct: purchased in-house DSF kinase panel (SGC-style construct names; the trailing letter is the construct ID)
T12 sequence (O94804 18-317 limits assumed): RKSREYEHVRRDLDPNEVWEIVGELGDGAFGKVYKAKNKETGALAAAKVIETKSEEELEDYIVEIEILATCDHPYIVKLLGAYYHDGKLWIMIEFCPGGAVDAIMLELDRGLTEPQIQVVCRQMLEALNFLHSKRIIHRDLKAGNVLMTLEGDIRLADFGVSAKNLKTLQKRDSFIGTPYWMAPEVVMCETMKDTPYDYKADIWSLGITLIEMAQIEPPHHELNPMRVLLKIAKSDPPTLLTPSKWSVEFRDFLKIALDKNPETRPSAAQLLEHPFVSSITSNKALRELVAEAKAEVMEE

T1 sequence (Q96L34 59-310): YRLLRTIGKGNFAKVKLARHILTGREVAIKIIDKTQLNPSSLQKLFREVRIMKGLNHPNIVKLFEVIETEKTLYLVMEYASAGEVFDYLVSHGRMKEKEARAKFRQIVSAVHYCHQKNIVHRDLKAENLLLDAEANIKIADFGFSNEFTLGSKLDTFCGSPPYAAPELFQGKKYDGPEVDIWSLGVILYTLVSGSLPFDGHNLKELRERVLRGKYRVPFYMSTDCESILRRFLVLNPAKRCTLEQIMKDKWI

| ΔTm at 10 µM (MARK4A) [°C] | ΔTm at 10 µM (OSR1A) [°C] | ΔTm at 10 µM (DCAMKL1A) [°C] | ΔTm at 10 µM (NEK1A) [°C] | ΔTm at 10 µM (MAPK10A) [°C] | ΔTm at 10 µM (MARK3A) [°C] | ΔTm at 10 µM (GPRK5A) [°C] | ΔTm at 10 µM (MAP3K5A) [°C] | ΔTm at 10 µM (CAMK2DA) [°C] | ΔTm at 10 µM (DMPK1A) [°C] | ΔTm at 10 µM (EPHA2 (EPHA2A)) [°C] | ΔTm at 10 µM (STK10) [°C] | SMILES |
| --- | --- | --- | --- | --- | --- | --- | --- | --- | --- | --- | --- | --- |
| 2 | 0.7 | 0 | -0.2 | 0.8 | 0.2 | 1.5 | 1.4 | -0.1 | 0.3 | 0.2 | 10 | O=C(NCc1ccc(Cl)cc1)Nc1ccc2cc1OCCOCCNc1ccn3ncc-2c3n1 [compound 19] |
| 2.2 | 1.5 | 2.2 | -0.1 | 0.7 | 0.3 | 2.2 | 2.8 | 2.4 | 0.7 | 0.5 | 6.7 | COc1cc(CNC(=O)Nc2ccc3cc2OCCOCCNc2ccn4ncc-3c4n2)ccc1F [compound 33] |
| 2.2 | 0.7 | 0.7 | 0.2 | 0.2 | 0.8 | 1.3 | 1 | 0.4 | -0.1 | 0.5 | 8.5 | O=C(NCc1ccccc1Cl)Nc1ccc2cc1OCCOCCNc1ccn3ncc-2c3n1 [compound 17] |
| 1.9 | 0.9 | 0.9 | -0.3 | 0.3 | -0.1 | 0.4 | 1 | 2.1 | 0.3 | 0.4 | 7.5 | COc1ccccc1CNC(=O)Nc1ccc2cc1OCCOCCNc1ccn3ncc-2c3n1 [compound 29] |
| 2.6 | 1.6 | 0.4 | 0.7 | 1.4 | 1.5 | 1.4 | 2.7 | 0.8 | 0.2 | 0.5 | 7.3 | O=C(NCc1ccc(Cl)cc1F)Nc1ccc2cc1OCCOCCNc1ccn3ncc-2c3n1 [compound 21] |
| 1.7 | 0.5 | 0.8 | 0.1 | -0.3 | 0.7 | 1.2 | 2 | 0.2 | 0.3 | 0.8 | 6.9 | O=C(NCc1ccccc1)Nc1ccc2cc1OCCOCCNc1ccn3ncc-2c3n1 [compound 16] |
| 1.9 | 1.2 | 1.6 | -0.4 | 0.5 | 0.2 | 0.1 | 0.9 | 2.4 | 0.3 | 0.3 | 9.2 | Cc1ccc(F)cc1CNC(=O)Nc1ccc2cc1OCCOCCNc1ccn3ncc-2c3n1 [compound 26] |
| 2.5 | 1.7 | 1.6 | -0.4 | 0.8 | 0.5 | 0.7 | 2 | 2.7 | 0.6 | 0.3 | 7.6 | COc1ccc(CNC(=O)Nc2ccc3cc2OCCOCCNc2ccn4ncc-3c4n2)cc1F [compound 32] |
| 0.9 | 1.2 | 1.9 | -0.4 | 0.1 | 0 | 0.2 | 0.8 | 2.2 | 0 | 0.3 | 5.6 | C[C@H](NC(=O)Nc1ccc2cc1OCCOCCNc1ccn3ncc-2c3n1)c1ccccc1 [compound 34] |
